Assay results: US4647586A, “Pharmaceutical oil-in-water type micro-emulsion” (priority 1984, dated 1987)
Entries after “also recorded” stand apart in the source; their conditions may differ.

How the values were obtained:
[1] = tested on: Adjuvant-induced polyarthritis; test: Adjuvant-induced polyarthritis in rats, adjuvant-injected paw [Test 2]; assay type: in vivo, SD-strain female rats
Experimental: (a) Experimental animals: SD-strain famale rats 140-180g).
(b) Test drugs: The same as in A-1 [Test 2].
Rats were anesthetized with ether inhalation, and 0.6 mg of Mycobacterium butyricum suspended in 0.1 ml of white paraffin oil was immediately injected intradermally into the planter surface of the left hind paw of each rat via a 27 gauge needle fitted to a 0.5 ml syringe (day 0). On the 14th day after the adjuvant injection, arthritis-established rats selected by development of secondary lesions were used. Volumes of both hind paws in arthritis-established rats were measured by a plethysmometer (UGO BASILE), and the rats were randomized on the basis of the edema volume in the adjuvant-injected paw. Once daily, beginning on the 14th day up to the 18th day, drugs and vehicles were administered intravenously. Measurements of both paw volumes were performed every day from the 15th day up to the 18th day, and on the 21st day and the 24th day. The inhibition percent were calculated in accordance with the calculation formula as in [Test 1] of A-1.

[2] = Toxicity test, single tail vein administration, 3 days observation; assay type: in vivo, Charles River-strain SD male rats; details: rat, in vivo, iv; read-out: Doses with no change in general symptoms and autopsy
Experimental: (§1) Charles River-strain SD male rats (6 weeks old; body weight 160-170 g), 5 per group, were used. […] The doses were 50, 100, 200 and 400 mg/kg. As a control, an aqueous solution of sodium 4-biphenylylacetate was administered.

[3] = tested on: Charles River-strain SD male rats; test: as above; assay type: in vivo
Experimental: as §1

For `O=C([O-])Cc1ccc(-c2ccccc2)cc1.[Na+]`, the “Inhibition (%)” value ([1]; 1.25 mg/kg/day i.v. as 4-biphenylylacetic acid, day 15) was -1.8%, the “Inhibition (%)” value ([1]; 1.25 mg/kg/day i.v. as 4-biphenylylacetic acid, day 16) was 1.2% and the “Inhibition (%)” value ([1]; 1.25 mg/kg/day i.v. as 4-biphenylylacetic acid, day 17) was 7.9%. The “Inhibition (%)” value ([1]; 1.25 mg/kg/day i.v. as 4-biphenylylacetic acid, day 18) was 3.9%, the “Inhibition (%)” value ([1]; 1.25 mg/kg/day i.v. as 4-biphenylylacetic acid, day 21) was -7.5% and the “Inhibition (%)” value ([1]; 1.25 mg/kg/day i.v. as 4-biphenylylacetic acid, day 24) was -14.1%. The “Inhibition (%)” value ([1]; 2.5 mg/kg/day i.v. as 4-biphenylylacetic acid, day 15) was -4.2%, the “Inhibition (%)” value ([1]; 2.5 mg/kg/day i.v. as 4-biphenylylacetic acid, day 16) was 1.5% and the “Inhibition (%)” value ([1]; 2.5 mg/kg/day i.v. as 4-biphenylylacetic acid, day 17) was 1.9%. For the same compound, the “Inhibition (%)” value ([1]; 2.5 mg/kg/day i.v. as 4-biphenylylacetic acid, day 18) was -3.9%, the “Inhibition (%)” value ([1]; 2.5 mg/kg/day i.v. as 4-biphenylylacetic acid, day 21) was -15.7% and the “Inhibition (%)” value ([1]; 2.5 mg/kg/day i.v. as 4-biphenylylacetic acid, day 24) was -29.7%. The “Inhibition (%)” value ([1]; 5.0 mg/kg/day i.v. as 4-biphenylylacetic acid, day 15) was 7.3%, the “Inhibition (%)” value ([1]; 5.0 mg/kg/day i.v. as 4-biphenylylacetic acid, day 16) was 12.9% and the “Inhibition (%)” value ([1]; 5.0 mg/kg/day i.v. as 4-biphenylylacetic acid, day 17) was 17.9%. The “Inhibition (%)” value ([1]; 5.0 mg/kg/day i.v. as 4-biphenylylacetic acid, day 18) was 15.6%, the “Inhibition (%)” value ([1]; 5.0 mg/kg/day i.v. as 4-biphenylylacetic acid, day 21) was 9.2% and the “Inhibition (%)” value ([1]; 5.0 mg/kg/day i.v. as 4-biphenylylacetic acid, day 24) was 2.8%. The “Inhibition (%)” value ([1]; 10.0 mg/kg/day i.v. as 4-biphenylylacetic acid, day 15) was 8.2%, the “Inhibition (%)” value ([1]; 10.0 mg/kg/day i.v. as 4-biphenylylacetic acid, day 16) was 9.5% and the “Inhibition (%)” value ([1]; 10.0 mg/kg/day i.v. as 4-biphenylylacetic acid, day 17) was 17.9%. For the same compound, the “Inhibition (%)” value ([1]; 10.0 mg/kg/day i.v. as 4-biphenylylacetic acid, day 18) was 16.6%, the “Inhibition (%)” value ([1]; 10.0 mg/kg/day i.v. as 4-biphenylylacetic acid, day 21) was 1.3% and the “Inhibition (%)” value ([1]; 10.0 mg/kg/day i.v. as 4-biphenylylacetic acid, day 24) was -0.7%. The ED20 ([1]; Rattus norvegicus, iv, read-out: ED20 (dose required to cause a 20% inhibition of adjuvant-injected paw volume)) was 14.3 mg/kg, the NOAEL at 72 h [2] was no less than 50 mg/kg and the “Findings: autopsy” value ([3]; 50 mg/kg i.v.) was “No change”. For the same compound, the “Findings: general symptoms” value ([3]; 50 mg/kg i.v.) was “No change”, the “Number of the dead” value ([3]; 50 mg/kg i.v. as 4-biphenylylacetic acid) was 0/5 and the “Findings: general symptoms (spontaneous motion)” value ([3]; 100 mg/kg i.v.) was “motion decreased”. For the same compound, the “Number of the dead” value ([3]; 100 mg/kg i.v. as 4-biphenylylacetic acid) was 0/5, the “Findings: general symptoms” value ([3]; 200 mg/kg i.v.) was “tarry feces” and the “Number of the dead” value ([3]; 200 mg/kg i.v. as 4-biphenylylacetic acid) was 3/5. For the same compound, the “Number of the dead” value ([3]; 400 mg/kg i.v. as 4-biphenylylacetic acid) was 3/5, the “Findings: autopsy” value ([3]; at least 100 mg/kg i.v.) was “Peptic ulcer occurred; also recorded: intestinal adherence” and the “Findings: general symptoms” value ([3]; at least 100 mg/kg i.v.) was “Body weight increase inhibition”. The “Findings: general symptoms” value ([3]; at least 200 mg/kg i.v.) was “pallor” and the “Doses at which changes occurred” value ([3]; rat, in vivo) was “more than 100 mg/kg”.
